The numbers were not newly measured in patent US20040223951A1, “Combination therapy for cancer” (Schering Corporation, priority 2000, published 2004), which cites them from elsewhere.

For data set [1] the following is noted: administered orally.

With `Cn1nnc2c(C(N)=O)ncn2c1=O` [Temozolomide, 3,4-dihydro-3-methyl-4-oxoimidazo-[5,1-d]1,2,3,4-tetrazin-8-carboximide], the bioavailability entry in data set [1] is given as “approximately 100%”. Besides, the “clinical response, % of patients with advanced melanoma” value with advanced melanoma (Journal of Clinical Oncology, Vol. 13, No. 4, 1995, pp. 910-913) was 21%. In addition, in the data set on advanced melanoma (Newlands ES, et al., Br J Cancer 65 (2) 287-291, 1992), the “clinical responses, % of patients having advanced melanoma” value is given as 17%. Moreover, for the setting “extended daily dosing of TMZ, Brock et al. Cancer Res. 1998;58:4363”, the “plasma concentration of active metabolite MTIC versus conventional dosing” value is “higher plasma concentration of the active metabolite MTIC than conventional dosing”. The “plasma concentrations of MTIC versus DTIC” value (oral TMZ compared with IV DTIC) is listed as “higher plasma concentrations of MTIC than IV administration of DTIC”.
